# Patent US6201006A, “Aromatic amidine derivatives useful as selective thrombin inhibitors” (C & C Research Laboratories, priority 1996, dated 2001)
# Several values for one entry are separate records, joined by “and”; a condition that tells them apart may be missing. Equal entries are not always repeated. Where two headings read alike, the source gives them in different places.
# Legend:
# human thrombin = target: T1, human thrombin (Homo sapiens, UniProt P00734); assay: Inhibitory activity for thrombin (chromogenic substrate hydrolysis, 405 nm); type: biochemical
# T1 construct: purchased Sigma T-6759
# Procedure, shortened: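 Thrombin: human enzyme (5 units/ml stock, 0.1% BSA) acted for 20 min on N-benzoyl-Phe-Val-Arg-p-nitroanilide in 125 mM NaCl, 50 mM Tris-HCl pH 8.0, with compounds dissolved in 50% methanol. Hydrolysis was read at 405 nm. Selectivity index was trypsin IC50 divided by thrombin IC50.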
# [1] = tested on: thrombin time (TT) in rat plasma; assay: Thrombin time (TT) in rat plasma after oral administration; type: in vivo, SD male rats; settings: TT after / TT before administration
# Experimental: SD male rats weighing 220±20 g which had fasted overnight were used as experimental animals. Blood taken from the hearts of the experimental animals just before administration of the test compound and at 30, 60, 120 and 240 minutes after oral administration of the test compound was mixed with 0.108M sodium citrate in the ratio of 9:1. The mixtures thereby obtained were centrifuged at 15,000 rpm for 5 minutes at 4° C. to separate the plasma, which was stored at -20° C. until the TT was measured by means of the method described below.
# 200 μl of Owren's buffer was added to 50 μl of the plasma and 100 μl of the diluted plasma thereby obtained was injected into the vial of a coagulometer and then incubated for 2 minutes at 37° C. To each vial was added 100 μl of thrombin at a concentration of 20 U/ml, which had prewarmed at 37° C., to measure the time (TT) until clotting occurred. The ratio of the TT in rat plasma after administration of the test compound to the TT in rat plasma before administration of the test compound was calculated.
# [2] = Pharmacokinetic test in rats (intravenous injection and oral administration); type: in vivo, S.D. male rats; settings: for bioavailability: oral vs intravenous
# Experimental: S.D. male rats weighing 200±20 g which had fasted overnight were subjected to cannulation at their femoral veins and arteries. Compound 88 prepared in Example 62 was dissolved in physiological saline and then administered to the rats both by intravenous injection and oral administration. Blood was taken at prescribed intervals of time and then immediately mixed with methanol. The mixture was centrifuged (15,000 rpm, 5 min., 4° C.) to obtain quantitative amount of the supernatant which was then subjected to HPLC in Diode Array Detector at 254 nm to analyse the concentration of the test compound in the blood.
structure (smiles),measurement,setting,value
"CCn1c(CC[C@@H]2CCCN2C(=O)[C@H]2CCCN2CC(=O)O)cc2ccc(C(=N)N)cc21 [Compound 88, 2-[(R)-2-[[(S)-2-[2-(6-amidino-1-ethylindol-2-yl)ethyl]pyrrolidinyl]carbonyl]pyrrolidinyl]acetic acid]",Selectivity (trypsin/thrombin),human thrombin; IC50 for trypsin divided by IC50 for thrombin,8.1
same,IC50,"human thrombin; human thrombin, 20 min, pH 8.0, N-benzoyl-Phe-Val-Arg-p-nitroanilide",15.9 nM
same,Plasma TT ratio after administration to rat,[1]; 30 mg/kg oral,2.62
same,Plasma TT ratio after administration to rat,[1]; 50 mg/kg oral,7.83
same,"Blood concentration, individual rats (Rat-1 to Rat-5)","[2]; i.v. 10 mg/kg, 0.000 h",0.000 µg/mL
same,"Blood concentration, individual rats (Rat-1 to Rat-5)","[2]; i.v. 10 mg/kg, 0.033 h, 10 mg/kg, 1.98 min",11.186 µg/mL and 25.999 µg/mL and 23.841 µg/mL and 28.971 µg/mL and 18.505 µg/mL
same,"Blood concentration, individual rats (Rat-1 to Rat-5)","[2]; i.v. 10 mg/kg, 0.083 h, 10 mg/kg, 4.98 min",11.984 µg/mL and 10.776 µg/mL and 14.222 µg/mL and 11.623 µg/mL
same,"Blood concentration, individual rats (Rat-1 to Rat-5)","[2]; i.v. 10 mg/kg, 0.250 h, 10 mg/kg, 15 min",2.707 µg/mL and 4.629 µg/mL and 3.531 µg/mL and 5.982 µg/mL and 3.895 µg/mL
same,"Blood concentration, individual rats (Rat-1 to Rat-5)","[2]; i.v. 10 mg/kg, 0.500 h, 10 mg/kg, 30 min",0.816 µg/mL and 1.963 µg/mL and 1.685 µg/mL and 2.939 µg/mL and 1.516 µg/mL
same,"Blood concentration, individual rats (Rat-1 to Rat-5)","[2]; i.v. 10 mg/kg, 1.000 h, 10 mg/kg, 60 min",0.784 µg/mL and 0.773 µg/mL and 0.577 µg/mL and 1.204 µg/mL and 0.535 µg/mL
same,"Blood concentration, individual rats (Rat-1 to Rat-5)","[2]; i.v. 10 mg/kg, 2.000 h, 10 mg/kg",0.000 µg/mL
same,"Blood concentration, individual rats (Rat-1 to Rat-5)","[2]; i.v. 10 mg/kg, 2.000 h, 10 mg/kg, 120 min",0.204 µg/mL and 0.098 µg/mL and 0.424 µg/mL and 0.162 µg/mL
same,"Blood concentration, individual rats (Rat-1 to Rat-5)","[2]; i.v. 10 mg/kg, 4.000 h, 10 mg/kg",0.000 µg/mL
same,"Blood concentration, individual rats (Rat-1 to Rat-5)","[2]; i.v. 10 mg/kg, 4.000 h, 10 mg/kg, 240 min",0.121 µg/mL and 0.055 µg/mL
same,"Blood concentration, individual rats (Rat-1 to Rat-5)","[2]; i.v. 10 mg/kg, 6.000 h, 10 mg/kg",0.000 µg/mL
same,"Blood concentration, individual rats (Rat-1 to Rat-5)","[2]; i.v. 10 mg/kg, 6.000 h, 10 mg/kg, 360 min",0.051 µg/mL
same,"Blood concentration, individual rats (Rat-1 to Rat-5)","[2]; i.v. 10 mg/kg, 24.000 h",0.000 µg/mL
same,"Blood concentration, individual rats (Rat-1 to Rat-5)","[2]; oral 100 mg/kg, 0.000 h",0.000 µg/mL
same,"Blood concentration, individual rats (Rat-1 to Rat-5)","[2]; oral 100 mg/kg, 0.033 h, 100 mg/kg, 1.98 min",11.186 µg/mL and 25.999 µg/mL and 23.841 µg/mL and 28.971 µg/mL and 18.505 µg/mL
same,"Blood concentration, individual rats (Rat-1 to Rat-5)","[2]; oral 100 mg/kg, 0.083 h, 100 mg/kg, 4.98 min",11.984 µg/mL and 10.776 µg/mL and 14.222 µg/mL and 11.623 µg/mL
same,"Blood concentration, individual rats (Rat-1 to Rat-5)","[2]; oral 100 mg/kg, 0.250 h, 100 mg/kg, 15 min",2.707 µg/mL and 4.629 µg/mL and 3.531 µg/mL and 5.982 µg/mL and 3.895 µg/mL
same,"Blood concentration, individual rats (Rat-1 to Rat-5)","[2]; oral 100 mg/kg, 0.500 h, 100 mg/kg, 30 min",0.816 µg/mL and 1.963 µg/mL and 1.685 µg/mL and 2.939 µg/mL and 1.516 µg/mL
same,"Blood concentration, individual rats (Rat-1 to Rat-5)","[2]; oral 100 mg/kg, 1.000 h, 100 mg/kg, 60 min",0.784 µg/mL and 0.773 µg/mL and 0.577 µg/mL and 1.204 µg/mL and 0.535 µg/mL
same,"Blood concentration, individual rats (Rat-1 to Rat-5)","[2]; oral 100 mg/kg, 2.000 h, 100 mg/kg",0.000 µg/mL
same,"Blood concentration, individual rats (Rat-1 to Rat-5)","[2]; oral 100 mg/kg, 2.000 h, 100 mg/kg, 120 min",0.204 µg/mL and 0.098 µg/mL and 0.424 µg/mL and 0.162 µg/mL
same,"Blood concentration, individual rats (Rat-1 to Rat-5)","[2]; oral 100 mg/kg, 4.000 h, 100 mg/kg",0.000 µg/mL
same,"Blood concentration, individual rats (Rat-1 to Rat-5)","[2]; oral 100 mg/kg, 4.000 h, 100 mg/kg, 240 min",0.121 µg/mL and 0.055 µg/mL
same,"Blood concentration, individual rats (Rat-1 to Rat-5)","[2]; oral 100 mg/kg, 6.000 h, 100 mg/kg",0.000 µg/mL
same,"Blood concentration, individual rats (Rat-1 to Rat-5)","[2]; oral 100 mg/kg, 6.000 h, 100 mg/kg, 360 min",0.051 µg/mL
same,"Blood concentration, individual rats (Rat-1 to Rat-5)","[2]; oral 100 mg/kg, 24.000 h",0.000 µg/mL
same,concentration at 0.083 h,"[2]; rat, blood, iv, 10 mg/kg, i.v. 10 mg/kg, 0.083 h, read-out: Blood concentration, individual rats (Rat-1 to Rat-5)",8790 ng/mL
same,concentration at 6 h,"[2]; rat, blood, iv, 10 mg/kg, i.v. 10 mg/kg, 6.000 h, read-out: Blood concentration, individual rats (Rat-1 to Rat-5)",90 ng/mL
same,concentration at 0.033 h,"[2]; rat, blood, iv, 10 mg/kg, rats, i.v. 10 mg/kg, 0.033 h",21700 ng/mL
same,concentration at 0.083 h,"[2]; rat, blood, iv, 10 mg/kg, rats, i.v. 10 mg/kg, 0.083 h, read-out: Blood concentration, Mean",11500 ng/mL
same,concentration at 0.25 h,"[2]; rat, blood, iv, 10 mg/kg, rats, i.v. 10 mg/kg, 0.250 h",4150 ng/mL
same,concentration at 0.5 h,"[2]; rat, blood, iv, 10 mg/kg, rats, i.v. 10 mg/kg, 0.500 h",1780 ng/mL
same,concentration at 1 h,"[2]; rat, blood, iv, 10 mg/kg, rats, i.v. 10 mg/kg, 1.000 h",775 ng/mL
same,concentration at 2 h,"[2]; rat, blood, iv, 10 mg/kg, rats, i.v. 10 mg/kg, 2.000 h",178 ng/mL
same,concentration at 4 h,"[2]; rat, blood, iv, 10 mg/kg, rats, i.v. 10 mg/kg, 4.000 h",35 ng/mL
same,concentration at 6 h,"[2]; rat, blood, iv, 10 mg/kg, rats, i.v. 10 mg/kg, 6.000 h, read-out: Blood concentration, Mean",28 ng/mL
same,concentration at 0.083 h,"[2]; rat, blood, po, 100 mg/kg, oral 100 mg/kg, 0.083 h, read-out: Blood concentration, individual rats (Rat-1 to Rat-5)",8790 ng/mL
same,concentration at 6 h,"[2]; rat, blood, po, 100 mg/kg, oral 100 mg/kg, 6.000 h, read-out: Blood concentration, individual rats (Rat-1 to Rat-5)",90 ng/mL
same,concentration at 0.033 h,"[2]; rat, blood, po, 100 mg/kg, rats, oral 100 mg/kg, 0.033 h",21700 ng/mL
same,concentration at 0.083 h,"[2]; rat, blood, po, 100 mg/kg, rats, oral 100 mg/kg, 0.083 h, read-out: Blood concentration, Mean",11500 ng/mL
same,concentration at 0.25 h,"[2]; rat, blood, po, 100 mg/kg, rats, oral 100 mg/kg, 0.250 h",4150 ng/mL
same,concentration at 0.5 h,"[2]; rat, blood, po, 100 mg/kg, rats, oral 100 mg/kg, 0.500 h",1780 ng/mL
same,concentration at 1 h,"[2]; rat, blood, po, 100 mg/kg, rats, oral 100 mg/kg, 1.000 h",775 ng/mL
same,concentration at 2 h,"[2]; rat, blood, po, 100 mg/kg, rats, oral 100 mg/kg, 2.000 h",178 ng/mL
same,concentration at 4 h,"[2]; rat, blood, po, 100 mg/kg, rats, oral 100 mg/kg, 4.000 h",35 ng/mL
same,concentration at 6 h,"[2]; rat, blood, po, 100 mg/kg, rats, oral 100 mg/kg, 6.000 h, read-out: Blood concentration, Mean",28 ng/mL
same,bioavailability,"[2]; rat, blood, po, rats, read-out: Bioavailability",32.6%
same,half-life,"[2]; rat, blood, rats, mean ± error, read-out: Elimination Half-life (converted)",64.2 ± 16.2 min
same,half-life,"[2]; rat, blood, rats, read-out: elimination half-time",64 min
same,"Blood concentration, Mean","[2]; rats, i.v. 10 mg/kg, 0.000 h",0.000 µg/mL
same,"Blood concentration, Mean","[2]; rats, i.v. 10 mg/kg, 24.000 h",0.000 µg/mL
same,distribution and disappearance after intravenous injection,"[2]; rats, intravenous injection",rapidly distributed in the body and slowly disappeared
same,"Blood concentration, Mean","[2]; rats, oral 100 mg/kg, 0.000 h",0.000 µg/mL
same,"Blood concentration, Mean","[2]; rats, oral 100 mg/kg, 24.000 h",0.000 µg/mL
same,bioavailability,[2]; rats,32.62 ± 7.69%
